# PMC12302426, “Dihydrokoumine, a dual-target analgesic with reduced side effects isolated from a traditional Chinese medicine” (Journal of Advanced Research, 2024)
# Key:
# CHO cells = test: Cytotoxicity assay (CCK-8), CHO; type: cell-based; conditions: 24 h
# Description: HEK293T, CHO, and HUVEC cell lines were cultured overnight in 96-well plates before exposure to compounds for 24 h. Cell viability was evaluated using the Cell Counting Kit-8 (CCK-8, Beyotime Biotechnology, China), and absorbance at 450 nm was measured with a microplate reader. Cell survival rates were calculated relative to control conditions.
# dopamine receptor D2 = biological target: T1, dopamine receptor D2 (Homo sapiens, UniProt P14416); test: DMR desensitization assay, HEK293-D2, probe dopamine; type: cell-based; conditions: 100 μM DK
# T1 construct: expressed in transfected cells; host or cells: HEK293-D2
# T1 sequence (P14416 whole entry): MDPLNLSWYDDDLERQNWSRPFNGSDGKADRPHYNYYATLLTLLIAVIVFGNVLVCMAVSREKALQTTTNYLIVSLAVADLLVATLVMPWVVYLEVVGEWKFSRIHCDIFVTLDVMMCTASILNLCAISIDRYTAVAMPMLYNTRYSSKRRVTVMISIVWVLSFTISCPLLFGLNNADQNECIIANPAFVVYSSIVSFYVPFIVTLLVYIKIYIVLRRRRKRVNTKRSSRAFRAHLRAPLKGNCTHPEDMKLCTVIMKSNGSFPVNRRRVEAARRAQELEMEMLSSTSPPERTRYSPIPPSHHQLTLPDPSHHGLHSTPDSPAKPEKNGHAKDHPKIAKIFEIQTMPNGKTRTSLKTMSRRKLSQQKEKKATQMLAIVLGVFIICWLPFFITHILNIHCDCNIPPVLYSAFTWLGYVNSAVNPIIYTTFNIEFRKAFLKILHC
# Description: (§1) DMR assays were performed using an Epic® BT system (Corning, NY, USA). All used cell lines were directly seeded in Epic 384-well biosensor microplates with a seeding density of 25,000 cells per well. After being cultured for about 22 h, the cells formed a monolayer with a confluency of about 95 % in the cell culture medium. Then the cells were manually washed using assay buffer (1 × HBSS buffer, 10 mM HEPES, pH = 7.4) and maintained in 30 μL of the assay buffer for 1 h. All samples were dissolved in DMSO and diluted freshly with the assay buffer containing 0.1 % BSA.
# (§2) The receptor selectivity was evaluated against a set of G protein-coupled receptors (GPCRs), including opioid receptor (Delta/Kappa/NOP), dopamine receptor (D1/D2), orphan receptor (GPR35), adrenergic receptor (α2A/β2), serotonin receptor (5HT2A), histamine receptor (H1) and cannabinoid receptor (CB1). Following a 1-hour pretreatment with DK, a 2-min baseline was established before introducing probes and monitoring DMR signals for another hour. The cells and probes were as follows: Delta, HEK293-Delta, SNC162; Kappa, HEK293-Kappa, ICI199441; NOP, HEK293-NOP, MCOPPB; D1, HEK293-D1, dopamine; D2, HEK293-D2, dopamine; GPR35, CHO-K1-hGPR35, zaprinast; 5HT2A, HEK293-5HT2A, 5-hydroxytryptamine; α2A, HEK293-α2A, L-Noradrenaline; β2, A431, isoprenaline; H1, A431, histamine; CB1, CHO-K1-CB1, CP 55940. […]
# cannabinoid receptor CB1 = biological target: T2, cannabinoid receptor CB1 (Homo sapiens, UniProt P21554); test: DMR desensitization assay, CHO-K1-CB1, probe CP 55940; type: cell-based; conditions: 100 μM DK
# T2 construct: expressed in transfected cells; host or cells: CHO-K1-CB1
# T2 sequence (P21554 whole entry): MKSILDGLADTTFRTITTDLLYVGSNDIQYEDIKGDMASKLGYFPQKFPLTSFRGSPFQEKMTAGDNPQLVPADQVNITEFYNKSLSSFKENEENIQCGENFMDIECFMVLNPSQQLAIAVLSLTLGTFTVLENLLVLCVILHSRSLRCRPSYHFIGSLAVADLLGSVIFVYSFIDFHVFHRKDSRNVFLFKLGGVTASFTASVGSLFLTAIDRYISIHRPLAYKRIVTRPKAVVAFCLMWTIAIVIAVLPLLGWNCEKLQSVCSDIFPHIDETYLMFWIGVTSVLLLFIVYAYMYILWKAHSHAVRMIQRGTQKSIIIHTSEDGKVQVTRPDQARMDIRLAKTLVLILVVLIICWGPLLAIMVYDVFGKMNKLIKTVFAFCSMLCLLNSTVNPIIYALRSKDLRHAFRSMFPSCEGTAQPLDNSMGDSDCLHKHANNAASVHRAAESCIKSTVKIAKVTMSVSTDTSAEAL
# Description: as §1, §2
# mu opioid receptor (MOR) = biological target: T3, mu opioid receptor (MOR) (Homo sapiens, UniProt P35372); test: DMR assay in HEK293T-Mu cells (agonist, desensitization, antagonist); type: cell-based
# T3 construct: expressed in transfected cells; host or cells: HEK293T-Mu
# T3 sequence (P35372 whole entry): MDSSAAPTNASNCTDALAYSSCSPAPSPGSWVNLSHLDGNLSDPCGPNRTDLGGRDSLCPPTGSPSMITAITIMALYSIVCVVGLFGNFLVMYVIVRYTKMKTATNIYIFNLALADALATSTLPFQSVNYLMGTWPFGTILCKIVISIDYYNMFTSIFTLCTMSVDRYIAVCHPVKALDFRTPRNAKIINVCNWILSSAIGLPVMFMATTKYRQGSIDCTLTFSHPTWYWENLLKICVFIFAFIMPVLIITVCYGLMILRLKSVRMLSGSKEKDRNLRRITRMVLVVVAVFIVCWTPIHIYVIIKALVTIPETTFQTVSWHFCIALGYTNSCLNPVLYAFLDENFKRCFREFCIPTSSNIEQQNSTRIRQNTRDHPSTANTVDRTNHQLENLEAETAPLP
# Description: as §1
# (§3) The DMR assays were conducted as follows. […] In the case of the DMR desensitization assay, cells were pretreated with analytes for one hour before introducing a specific agonist at the indicated concentration, and the agonist-induced DMR signals were monitored for one hour. Finally, for the DMR antagonist assay, cells underwent a 1-hour pretreatment with an antagonist before the addition of a specific agonist at the indicated concentration, and subsequent DMR signals were recorded over one hour.
# [1] = biological target: T4, serotonin receptor 5-HT2A (Homo sapiens, UniProt P28223); test: DMR desensitization assay, HEK293-5HT2A, probe 5-hydroxytryptamine; type: cell-based; conditions: 100 μM DK
# T4 construct: expressed in transfected cells; host or cells: HEK293-5HT2A
# T4 sequence (P28223 whole entry): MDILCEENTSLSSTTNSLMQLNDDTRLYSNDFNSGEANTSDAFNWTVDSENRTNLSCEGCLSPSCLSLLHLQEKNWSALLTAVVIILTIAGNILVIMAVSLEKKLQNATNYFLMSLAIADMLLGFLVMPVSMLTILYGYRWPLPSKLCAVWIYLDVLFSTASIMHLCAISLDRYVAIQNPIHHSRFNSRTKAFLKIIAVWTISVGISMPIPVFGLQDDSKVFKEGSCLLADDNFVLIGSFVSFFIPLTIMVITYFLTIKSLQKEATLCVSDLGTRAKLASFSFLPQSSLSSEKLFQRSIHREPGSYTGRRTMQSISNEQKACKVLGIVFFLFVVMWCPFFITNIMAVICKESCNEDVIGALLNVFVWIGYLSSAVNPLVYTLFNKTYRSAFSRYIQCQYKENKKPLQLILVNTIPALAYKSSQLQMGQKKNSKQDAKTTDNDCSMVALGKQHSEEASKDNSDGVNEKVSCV
# Description: as §1, §2
# C57BL/6 male mice [2] = test: Antinociceptive tolerance, repeated injection over 7 days, hot-plate assay; type: in vivo; conditions: DK 20 and 40 mg/kg daily over 7 days, compared with morphine 5 mg/kg
# Description: Subsequent tolerance assessment was conducted through a repeated-injection protocol employing the hot-plate assay. Mice were injected intraperitoneally (5 mL/kg) with the solvent mixture, morphine (5 mg/kg) or DK (20, 40 mg/kg) daily for a continuous seven-day period. The diminishment of the antinociception of drugs in the assay was employed to evaluate the tolerance, with latency measured one hour after drug administration throughout the week.
# C57BL/6 male mice [3] = test: Hot-plate assay (acute pain); type: in vivo
# Description: The hot-plate test in mice was conducted following previously established method. Six-week-old C57BL/6 male mice were used in hot-plate assay (n = 6). Hot-plate response latency (55°C) after drug treatment was used to measure antinociceptive effect, where response was defined by the animal either by licking paws, flicking paws or jumping. Mice were exposed to the hot plate (Ugo Basile model 7280, Comerio, Italy) for a maximum of 20 s to avoid tissue damage. After three days’ baseline measure, mice were injected intraperitoneally (5 mL/kg) with the solvent mixture, morphine (5 mg/kg) or DK (20, 40 mg/kg) and latency was tested 0.5-, 1-, 2-, 3- and 4- hours post-administration. Evaluation of MOR agonistic and M3R antagonistic activity of DK, naloxone (2 mg/kg) and oxotremorine (0.4 mg/kg) were first injected intraperitoneally, immediately followed by the injection of morphine (5 mg/kg, evaluation of MOR) or DK (20 mg/kg).
# HEK293 cells = test: DMR assay in untransfected HEK293 cells (background); type: cell-based; conditions: HEK293 cells without MOR
# Description: as §1, §3
# M5R = biological target: T5, M5R (Homo sapiens, UniProt P08912); test: FLIPR assay in CHO-M5 cells (carbachol-induced Ca2+); type: cell-based; conditions: DK pretreatment one hour
# T5 construct: expressed in transfected cells
# T5 sequence (P08912 whole entry): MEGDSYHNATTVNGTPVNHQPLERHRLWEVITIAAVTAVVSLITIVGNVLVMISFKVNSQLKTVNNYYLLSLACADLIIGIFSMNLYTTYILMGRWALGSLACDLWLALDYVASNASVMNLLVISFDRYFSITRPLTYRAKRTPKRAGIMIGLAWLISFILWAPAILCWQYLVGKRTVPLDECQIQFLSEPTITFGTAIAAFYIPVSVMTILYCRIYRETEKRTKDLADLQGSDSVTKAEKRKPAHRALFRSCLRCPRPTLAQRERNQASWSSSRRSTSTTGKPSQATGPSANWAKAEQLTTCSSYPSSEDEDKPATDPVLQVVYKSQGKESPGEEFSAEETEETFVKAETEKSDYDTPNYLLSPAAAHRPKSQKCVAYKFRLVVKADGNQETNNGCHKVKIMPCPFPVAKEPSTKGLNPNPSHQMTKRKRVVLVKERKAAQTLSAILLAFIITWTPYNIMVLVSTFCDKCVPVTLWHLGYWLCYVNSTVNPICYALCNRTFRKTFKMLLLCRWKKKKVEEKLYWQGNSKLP
# Description: FLIPR assay was carried out as reported earlier. Cell lines were seeded in 96-well plates with black walls (Greiner, USA) at 8.0 × 10^4 cells per well. After approximately 22 h of incubation, the cells were exposed to Calcium-6 dye (Molecular Devices, USA) in HBSS buffer supplemented with 20 mM HEPES (pH 7.4) at 37°C for one hour. Samples, redissolved in DMSO and housed in 96-well drug plates, underwent dilution with FLIPR buffer and subsequent automated introduction to the cells. […] […] Results were presented as fluorescence (arbitrary units) plotted against time.
compound,measurement,setting,value
C=CC12CN(C)C3CC14c1ccccc1NC4C1CC2C3CO1 (stereo not drawn) [DK],cytotoxicity (cell viability),CHO cells,noncytotoxic
same,reduction of probe DMR response (desensitization),dopamine receptor D2,almost unable to reduce the response
same,reduction of probe DMR response (desensitization),cannabinoid receptor CB1,almost unable to reduce the response
same,maximum DMR response compared with endomorphin-1,mu opioid receptor (MOR),half of the maximum DMR response of endomorphin-1
same,DMR response after naloxone pretreatment,"mu opioid receptor (MOR); 100 μM DK, naloxone pretreatment one hour",could be antagonized by naloxone
same,EC50,"mu opioid receptor (MOR); DMR agonist assay, read-out: EC50 of DMR response",16.3 ± 1.05 µM
same,concentration-dependent DMR response at MOR compared with purified DK,mu opioid receptor (MOR); semisynthesized material,its activity was close to that of purified DK
same,reduction of probe DMR response (desensitization),[1],almost unable to reduce the response
same,antinociceptive tolerance,C57BL/6 male mice [2],no antinociceptive tolerance was observed
same,effect of naloxone on pain threshold in hot plate assay,"C57BL/6 male mice [3]; DK 20 mg/kg, naloxone 2 mg/kg",naloxone failed to decrease the pain threshold of DK
same,effect of oxotremorine on antinociception in hot plate assay,"C57BL/6 male mice [3]; DK 20 mg/kg, oxotremorine 0.4 mg/kg",oxotremorine markedly diminished the antinociceptive efficacy of DK
same,duration of antinociception,"C57BL/6 male mice [3]; DK 20, 40 mg/kg i.p.",at least 3 h
same,antinociception (hot-plate response latency),"C57BL/6 male mice [3]; DK 20, 40 mg/kg i.p., 55°C",potent antinociception in a dose-dependent manner
same,background DMR response,HEK293 cells,No background response
same,inhibition of carbachol-induced Ca2+ response,M5R,could not concentration-dependently inhibit
